Experimental data: patent publication US8940897B2, “1,3,4-oxadiazole and 1,3,4-thiadiazole β-lactamase inhibitors” (priority 2012, dated 2015)
Where a name gives a salt, the structure may show the parent alone.

How the values were obtained:
[1] = tested on: bacterial strains that express KPC β-lactamases; assay: Synergy MIC / standard BLI potentiation MIC assay, strains expressing KPC β-lactamases; assay type: cell-based; conditions: for at least one KPC strain and/or a better spectrum of activity against KPC strains than Avibactam; in the presence of a β-lactam
Method: (§1) Unless otherwise indicated, the activity of the BLI compounds can be described by the MIC value obtained from a Synergy MIC assay or a BLI potentiation assay (e.g as described herein), both of which are run in the presence of a β-lactam.
(§2) The experimental protocol was performed according to Clinical and Laboratory Standards Institute (CLSI) guidelines with modifications as described below (CLSI guidelines can be derived from the CLSI document M07-A9 published in January 2012: “Methods for Dilution Antimicrobial Susceptibility Tests for Bacteria That Grow Aerobically; Approved Standard-Ninth Edition”).
(§3) To prepare for MIC testing, frozen glycerol stocks of clinical isolates (Klebsiella pneumoniae, Eschericia coli, Enterobacter spp, Citrobacter spp, or Pseudomonas aeruginosa) were used to streak for isolated colonies on rich, non-selective, tryptic soy agar containing 5% sheep's blood (TSAB). Frozen glycerol stocks of laboratory engineered, isogenic E. coli strains, which contain cloned β-lactamase expressing plasmids were used to streak for isolated colonies on rich, selective LB agar supplemented with 25 μg/mL tetracycline to maintain the plasmid. All strains were incubated at 37° C. for 18-24 hrs.
(§4) On the day of testing, primary cultures were started by scraping off 5-10 colonies from the TSAB plates containing clinical strains or the tetracycline supplemented LB plates containing engineered strains. The clinical strain material was suspended in ˜5 mL of cation adjusted Mueller Hinton Broth (CAMHB) in 14 mL culture tubes. The engineered strain material was suspended in CAMHB (supplemented with 25 μg/mL tetracycline) in 14 mL culture tubes. All strains were incubated at 37° C. with aeration (200 rpm) for ˜2 hrs until the optical density at 600 nm (OD600) was ≧0.1.
(§5) The two compound components of the assay were each diluted in CAMHB and added to the 96-well broth microdilution assay plates. 50 μL of the β-lactam was added to each well of the assay plate in 2-fold dilutions with final concentrations ranging from 128 to 0.13 μg/mL. 25 μL of the BLI compound was added to all wells in the broth microdilution plates at a final concentration of 4 μg/mL. Inoculum cultures were prepared by standardizing the primary cultures to OD600=0.1 and then adding 20 μL of the adjusted primary culture per 1 mL CAMHB for clinical strains or CAMHB (supplemented with tetracycline at 100 μg/mL) for engineered strains, so that the final inoculum density was ˜10^5 colony forming units per milliliter. Diluted inoculum cultures were used to inoculate 25 μl, per well in 96-well broth microdilution assay plates. The final volume of each well was 100 μL and contained a β-lactam at different concentrations, a BLIcompound at 4 μg/mL concentration, the bacterial culture at an OD600 of approximately 0.001 and when necessary tetracycline at 25 μg/mL.
(§6) Plates were incubated for 18-20 hours at 37° C. with aeration (200 rpm). Following incubation, growth was confirmed visually placing plates over a viewing apparatus (stand with a mirror underneath) and then OD600 was measured using a SpectraMax 340PC384 plate reader (Molecular Devices, Sunnyvale, Calif.). Growth was defined as turbidity that could be detected with the naked eye or achieving minimum OD600 of 0.1. MIC values were defined as the lowest concentration producing no visible turbidity.
(§7) The synergy MIC (sMIC) assay determines the concentration of the BLI required to potentiate the activity of a fixed concentration of a β-lactam antibiotic against β-lactamase producing bacterial strains. The experimental protocol was performed according to Clinical and Laboratory Standards Institute (CLSI) guidelines with modifications as described below (CLSI guidelines can be derived from the CLSI document M07-A9 published in January 2012: “Methods for Dilution Antimicrobial Susceptibility Tests for Bacteria That Grow Aerobically; Approved Standard-Ninth Edition”). […]

[2] = tested on: bacterial strains that express the class D cephalosporinase OXA-15; assay: Synergy MIC / standard BLI potentiation MIC assay, strains expressing OXA-15;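 also: more active means a lower MIC or sMIC than Avibactam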; assay type: cell-based, E. coli; conditions: in the presence of a β-lactam; comparator Avibactam (CCC)
Method: as §1, §2, §3, §4, §5, §6, §7

N[C@H]1CC[C@@H](c2nnc([C@@H]3CC[C@@H]4CN3C(=O)N4OS(=O)(=O)O)o2)C1 [Compound 768, (2S,5R)-2-(5-((1R,3S)-3-aminocyclopentyl)-1,3,4-oxadiazol-2-yl)-7-oxo-1,6-diazabicyclo[3.2.1]octan-6-yl hydrogen sulfate]
activity against bacterial strains that express KPC β-lactamase compared with Avibactam [1]: more active than Avibactam
activity against bacterial strains that express OXA-15 β-lactamase compared with Avibactam [2]: more active than Avibactam

N[C@@H]1CN[C@@H](c2nnc([C@@H]3CC[C@@H]4CN3C(=O)N4OS(=O)(=O)O)o2)C1 [Compound 763, (2S,5R)-2-(5-((2R,4S)-4-aminopyrrolidin-2-yl)-1,3,4-oxadiazol-2-yl)-7-oxo-1,6-diazabicyclo[3.2.1]octan-6-yl hydrogen sulfate]
activity against bacterial strains that express KPC β-lactamase compared with Avibactam [1]: more active than Avibactam
activity against bacterial strains that express OXA-15 β-lactamase compared with Avibactam [2]: more active than Avibactam

NC1CC(NCc2nnc([C@@H]3CC[C@@H]4CN3C(=O)N4OS(=O)(=O)O)o2)C1 (stereo partly drawn) [Compound 755, (2S,5R)-2-(5-(((3-aminocyclobutyl)amino)methyl)-1,3,4-oxadiazol-2-yl)-7-oxo-1,6-diazabicyclo[3.2.1]octan-6-yl hydrogen sulfate]
activity against bacterial strains that express KPC β-lactamase compared with Avibactam [1]: more active than Avibactam
activity against bacterial strains that express OXA-15 β-lactamase compared with Avibactam [2]: more active than Avibactam

O=C1N2C[C@@H](CC[C@H]2c2nnc([C@H]3CCNC3)o2)N1OS(=O)(=O)O [Compound 758, (2S,5R)-7-oxo-2-(5-((S)-pyrrolidin-3-yl)-1,3,4-oxadiazol-2-yl)-1,6-diazabicyclo[3.2.1]octan-6-yl hydrogen sulfate]
activity against bacterial strains that express KPC β-lactamase compared with Avibactam [1]: more active than Avibactam
activity against bacterial strains that express OXA-15 β-lactamase compared with Avibactam [2]: more active than Avibactam

O=C1N2C[C@@H](CC[C@H]2c2nnc(CCCC3CNC3)o2)N1OS(=O)(=O)O [Compound 743, (2S,5R)-2-(5-(3-(azetidin-3-yl)propyl)-1,3,4-oxadiazol-2-yl)-7-oxo-1,6-diazabicyclo[3.2.1]octan-6-yl hydrogen sulfate]
activity against bacterial strains that express KPC β-lactamase compared with Avibactam [1]: more active than Avibactam
activity against bacterial strains that express OXA-15 β-lactamase compared with Avibactam [2]: more active than Avibactam

CNCCCc1nnc([C@@H]2CC[C@@H]3CN2C(=O)N3OS(=O)(=O)O)o1 [Compound 734, (2S,5R)-2-(5-(3-(methylamino)propyl)-1,3,4-oxadiazol-2-yl)-7-oxo-1,6-diazabicyclo[3.2.1]octan-6-yl hydrogen sulfate]
activity against bacterial strains that express KPC β-lactamase compared with Avibactam [1]: more active than Avibactam
activity against bacterial strains that express OXA-15 β-lactamase compared with Avibactam [2]: more active than Avibactam

N[C@H]1C[C@@H](Cc2nnc([C@@H]3CC[C@@H]4CN3C(=O)N4OS(=O)(=O)O)o2)C1 [Compound 728, (2S,5R)-2-(5-(((1s,3R)-3-aminocyclobutyl)methyl)-1,3,4-oxadiazol-2-yl)-7-oxo-1,6-diazabicyclo[3.2.1]octan-6-yl hydrogen sulfate]
activity against bacterial strains that express KPC β-lactamase compared with Avibactam [1]: more active than Avibactam
activity against bacterial strains that express OXA-15 β-lactamase compared with Avibactam [2]: more active than Avibactam

N[C@H]1C[C@H](CCc2nnc([C@@H]3CC[C@@H]4CN3C(=O)N4OS(=O)(=O)O)o2)C1 [Compound 753, (2S,5R)-2-(5-(2-((1r,3R)-3-aminocyclobutyl)ethyl)-1,3,4-oxadiazol-2-yl)-7-oxo-1,6-diazabicyclo[3.2.1]octan-6-yl hydrogen sulfate]
activity against bacterial strains that express KPC β-lactamase compared with Avibactam [1]: more active than Avibactam
activity against bacterial strains that express OXA-15 β-lactamase compared with Avibactam [2]: more active than Avibactam

O=C1N2C[C@@H](CC[C@H]2c2nnc(CCN3CCNCC3)o2)N1OS(=O)(=O)O [Compound 776, (2S,5R)-7-oxo-2-(5-(2-(piperazin-1-yl)ethyl)-1,3,4-oxadiazol-2-yl)-1,6-diazabicyclo[3.2.1]octan-6-yl hydrogen sulfate]
activity against bacterial strains that express KPC β-lactamase compared with Avibactam [1]: more active than Avibactam
activity against bacterial strains that express OXA-15 β-lactamase compared with Avibactam [2]: more active than Avibactam

NC1(Cc2nnc([C@@H]3CC[C@@H]4CN3C(=O)N4OS(=O)(=O)O)o2)CC1 [Compound 724, (2S,5R)-2-(5-((1-aminocyclopropyl)methyl)-1,3,4-oxadiazol-2-yl)-7-oxo-1,6-diazabicyclo[3.2.1]octan-6-yl hydrogen sulfate]
activity against bacterial strains that express KPC β-lactamase compared with Avibactam [1]: more active than Avibactam
activity against bacterial strains that express OXA-15 β-lactamase compared with Avibactam [2]: more active than Avibactam

O=C1N2C[C@@H](CC[C@H]2c2nnc(C3CC4(CNC4)C3)o2)N1OS(=O)(=O)O [Compound 750, (2S,5R)-2-(5-(2-azaspiro[3.3]heptan-6-yl)-1,3,4-oxadiazol-2-yl)-7-oxo-1,6-diazabicyclo[3.2.1]octan-6-yl hydrogen sulfate]
activity against bacterial strains that express KPC β-lactamase compared with Avibactam [1]: more active than Avibactam
activity against bacterial strains that express OXA-15 β-lactamase compared with Avibactam [2]: more active than Avibactam

N=C(N)Nc1nnc([C@@H]2CC[C@@H]3CN2C(=O)N3OS(=O)(=O)O)o1 [Compound 738, (2S,5R)-2-(5-guanidino-1,3,4-oxadiazol-2-yl)-7-oxo-1,6-diazabicyclo[3.2.1]octan-6-yl hydrogen sulfate]
activity against bacterial strains that express KPC β-lactamase compared with Avibactam [1]: more active than Avibactam
activity against bacterial strains that express OXA-15 β-lactamase compared with Avibactam [2]: more active than Avibactam

O=C1N2C[C@@H](CC[C@H]2c2nnc(C3CNC3)o2)N1OS(=O)(=O)O [Compound 708, (2S,5R)-2-(5-(azetidin-3-yl)-1,3,4-oxadiazol-2-yl)-7-oxo-1,6-diazabicyclo[3.2.1]octan-6-yl hydrogen sulfate]
activity against bacterial strains that express KPC β-lactamase compared with Avibactam [1]: more active than Avibactam
activity against bacterial strains that express OXA-15 β-lactamase compared with Avibactam [2]: more active than Avibactam

N=C(N)NCc1nnc([C@@H]2CC[C@@H]3CN2C(=O)N3OS(=O)(=O)O)s1 [Compound 721, (2S,5R)-2-(5-(guanidinomethyl)-1,3,4-thiadiazol-2-yl)-7-oxo-1,6-diazabicyclo[3.2.1]octan-6-yl hydrogen sulfate]
activity against bacterial strains that express KPC β-lactamase compared with Avibactam [1]: more active than Avibactam
activity against bacterial strains that express OXA-15 β-lactamase compared with Avibactam [2]: more active than Avibactam

O=C1N2C[C@@H](CC[C@H]2c2nnc(CC3CCNC3)o2)N1OS(=O)(=O)O (stereo partly drawn) [Compound 764, (2S,5R)-7-oxo-2-(5-(pyrrolidin-3-ylmethyl)-1,3,4-oxadiazol-2-yl)-1,6-diazabicyclo[3.2.1]octan-6-yl hydrogen sulfate]
activity against bacterial strains that express KPC β-lactamase compared with Avibactam [1]: more active than Avibactam
activity against bacterial strains that express OXA-15 β-lactamase compared with Avibactam [2]: more active than Avibactam
